From patent US20240083857A1, “2-Methyl-Quinazolines” (Bayer Pharma Aktiengesellschaft, priority 2017, published 2024)

Experiments:
[1] = biological target: K-Ras^G12C : hSOS1 interaction (Homo sapiens, UniProt Q07889); assay: Biochemical assay 1: K-Ras^G12C interaction assay with hSOS1 (HTRF); assay type: binding; details: E-notation values; unit inferred; read-out: Assay 1 (KRAS-SOS interaction) IC50
[2] = biological target: human SOS1 (nucleotide exchange of K-Ras^G12C) (Homo sapiens, UniProt Q07889); assay: Biochemical assay 2: K-Ras^G12C activation assay by hSOS1 at high GTP concentration (HTRF); details: E-notation values; unit inferred; 50 μM GTP; read-out: Assay 2 (KRAS-Activation, high GTP) IC50

SMILES	IC50 [1] [nM]	IC50 [2] [nM]
COc1cc2nc(C)nc(NC(C)c3ccc(-c4ccnc(O)c4)s3)c2cc1OC (stereo not shown) [Example 410, 4-(5-{1-[(6,7-dimethoxy-2-methylquinazolin-4-yl)amino]ethyl}-2-thienyl)pyridin-2-ol]	4230	2790
COc1cc2nc(C)nc(NC(C)c3ccc(-c4ccccc4C4CC(=O)N4)s3)c2cc1OC (stereo not shown) [Example 411, 4-[2-(5-{1-[(6,7-dimethoxy-2-methylquinazolin-4-yl)amino]ethyl}thiophen-2-yl)phenyl]azetidin-2-one]	14500	> 20000
COc1cc2nc(C)nc(NC(C)c3ccc(-c4ccc(C#N)cc4CN(C)C)s3)c2cc1OC (stereo not shown) [Example 413, 4-(5-{1-[(6,7-dimethoxy-2-methylquinazolin-4-yl)amino]ethyl}thiophen-2-yl)-3-[(dimethylamino)methyl]benzonitrile]	223	262
Cc1nc(NC(C)c2ccc(Br)s2)c2cc(N3CCC(N(C)C)C3)ccc2n1 (stereo not shown) [Example 414, N-[1-(5-bromothiophen-2-yl)ethyl]-6-[3-(dimethylamino)pyrrolidin-1-yl]-2-methylquinazolin-4-amine]	1380	1240
Cc1nc(NC(C)c2ccc(Br)s2)c2cc(N3CCN(C)CC3)ccc2n1 (stereo not shown) [Example 416, N-[1-(5-bromothiophen-2-yl)ethyl]-2-methyl-6-(4-methylpiperazin-1-yl)quinazolin-4-amine]	867	697
Cc1nc(NC(C)c2ccc(-c3ccccc3CN(C)C)s2)c2cc(N3CCN(C)CC3)ccc2n1 (stereo not shown) [Example 417, N-[1-(5-{2-[(dimethylamino)methyl]phenyl}thiophen-2-yl)ethyl]-2-methyl-6-(4-methylpiperazin-1-yl)quinazolin-4-amine]	45.5	28.9
Cc1nc(NC(C)c2ccc(-c3ccccc3CN(C)C)s2)c2cc(N3CCC(N(C)C)C3)ccc2n1 (stereo not shown) [Example 418, N-[1-(5-{2-[(dimethylamino)methyl]phenyl}thiophen-2-yl)ethyl]-6-[3-(dimethylamino)pyrrolidin-1-yl]-2-methylquinazolin-4-amine]	86.6	39.8
Cc1nc(NC(C)c2ccc(Br)s2)c2cc(N3CCCC3)ccc2n1 (stereo not shown) [Example 419, N-[1-(5-bromothiophen-2-yl)ethyl]-2-methyl-6-(pyrrolidin-1-yl)quinazolin-4-amine]	6450	3740
CC(=O)Nc1ccc2nc(C)nc(NC(C)c3ccc(-c4ccccc4CN(C)C)s3)c2c1 (stereo not shown) [Example 420, N-(4-{[1-(5-{2-[(dimethylamino)methyl]phenyl}thiophen-2-yl)ethyl]amino}-2-methylquinazolin-6-yl)acetamide]	303	384
COc1ccc(-c2ccc(C(C)Nc3nc(C)nc4cc(OC)c(OC)cc34)s2)c(C)c1 (stereo not shown) [Example 422, 6,7-dimethoxy-N-{1-[5-(4-methoxy-2-methylphenyl)thiophen-2-yl]ethyl}-2-methylquinazolin-4-amine]	1470	914
Cc1nc(NC(C)c2ccc(-c3ccccc3CN(C)C)s2)c2cc(N)ccc2n1 (stereo not shown) [Example 423, N4-[1-(5-{2-[(dimethylamino)methyl]phenyl}-2-thienyl)ethyl]-2-methylquinazoline-4,6-diamine]	204	187
Cc1nc(NC(C)c2ccc(Br)s2)c2cc(N3CCN(Cc4cccnc4)CC3)ccc2n1 (stereo not shown) [Example 424, N-[1-(5-bromothiophen-2-yl)ethyl]-2-methyl-6-[4-(pyridin-3-ylmethyl)piperazin-1-yl]quinazolin-4-amine]	1590	1410
Cc1nc(NC(C)c2ccc(Br)s2)c2cc(NCCN3CCOCC3)ccc2n1 (stereo not drawn) [Example 425, N4-[l-(5-bromo-2-thienyl)ethyl]-2-methyl-N6-[2-(morpholin-4-yl)ethyl]quinazoline-4,6-diamine]	5820	2560
Cc1nc(NC(C)c2ccc(-c3ccccc3CN(C)C)s2)c2cc(N3CCN(Cc4cccnc4)CC3)ccc2n1 (stereo not shown) [Example 426, N-[1-(5-{2-[(dimethylamino)methyl]phenyl}thiophen-2-yl)ethyl]-2-methyl-6-[4-(pyridin-3-ylmethyl)piperazin-1-yl]quinazolin-4-amine]	33.2	23
CC(=O)NCCNc1ccc2nc(C)nc(NC(C)c3ccc(-c4ccccc4CN(C)C)s3)c2c1 (stereo not shown) [Example 427, N-{2-[(4-{[1-(5-{2-[(dimethylamino)methyl]phenyl}thiophen-2-yl)ethyl]amino}-2-methylquinazolin-6-yl)amino]ethyl}acetamide]	58.4	49.8
COc1cc2nc(C)nc(NC(C)c3sc(Br)cc3Cl)c2cc1OC (stereo not shown) [Example 428, N-[1-(5-bromo-3-chlorothiophen-2-yl)ethyl]-6,7-dimethoxy-2-methylquinazolin-4-amine]	916	705

SMILES	IC50 [1] [nM]	IC50 [2] [nM]
COc1cc2nc(C)nc(NC(C)c3sc(-c4ccccc4CNC(=O)OC(C)(C)C)cc3Cl)c2cc1OC (stereo not shown) [Example 429, tert-butyl [2-(4-chloro-5-{1-[(6,7-dimethoxy-2-methylquinazolin-4-yl)amino]ethyl}thiophen-2-yl)benzyl]carbamate]	6090	3050
COc1cc2nc(C)nc(NC(C)c3cc(Cl)c(-c4ccccc4CN)s3)c2cc1OC (stereo not shown) [Example 430, N-[1-{5-[2-(aminomethyl)phenyl]-4-chlorothiophen-2-yl}ethyl]-6,7-dimethoxy-2-methylquinazolin-4-amine]	594	378
COc1cc2nc(C)nc(NC(C)c3cc(Cl)c(-c4ccccc4CN(C)C)s3)c2cc1OC (stereo not shown) [Example 431, N-[1-(4-chloro-5-{2-[(dimethylamino)methyl]phenyl}thiophen-2-yl)ethyl]-6,7-dimethoxy-2-methylquinazolin-4-amine]	324	215
COc1cc2nc(C)nc(NC(C)c3cc(Cl)c(Br)s3)c2cc1OC (stereo not shown) [Example 432, N-[1-(5-bromo-4-chlorothiophen-2-yl)ethyl]-6,7-dimethoxy-2-methylquinazolin-4-amine]	16700	15700
Cc1nc(NC(C)c2ccc(-c3ccccc3CN(C)C)s2)c2cc(NCCN3CCOCC3)ccc2n1 (stereo not shown) [Example 433, N4-[1-(5-{2-[(dimethylamino)methyl]phenyl}-2-thienyl)ethyl]-2-methyl-N6-[2-(morpholin-4-yl)ethyl]quinazoline-4,6-diamine]	77.1	70.1
Cc1nc(NC(C)c2ccc(Br)s2)c2cc(N3CCN(C)C(=O)C3)ccc2n1 (stereo not shown) [Example 434, 4-(4-{[1-(5-bromothiophen-2-yl)ethyl]amino}-2-methylquinazolin-6-yl)-1-methylpiperazin-2-one]	2840	2390
Cc1nc(NC(C)c2ccc(-c3ccccc3CN(C)C)s2)c2cc(N3CCN(C)C(=O)C3)ccc2n1 (stereo not shown) [Example 435, 4-(4-{[1-(5-{2-[(dimethylamino)methyl]phenyl}thiophen-2-yl)ethyl]amino}-2-methylquinazolin-6-yl)-1-methylpiperazin-2-one]	84.4	51.9
COC(=O)C(C)(C)c1ccccc1-c1ccc(C(C)Nc2nc(C)nc3cc(OC)c(OC)cc23)s1 (stereo not shown) [Example 436, methyl 2-[2-(5-{1-[(6,7-dimethoxy-2-methylquinazolin-4-yl)amino]ethyl}thiophen-2-yl)phenyl]-2-methylpropanoate]	2390	1470
COc1cc2nc(C)nc(NC(C)c3sc(-c4ccccc4CN)cc3Cl)c2cc1OC (stereo not shown) [Example 437, N-[1-{5-[2-(aminomethyl)phenyl]-3-chlorothiophen-2-yl}ethyl]-6,7-dimethoxy-2-methylquinazolin-4-amine]	145	95.3
Cc1nc(NC(C)c2ccc(-c3ccccc3CN(C)C)s2)c2cc(NS(C)(=O)=O)ccc2n1 (stereo not shown) [Example 438, N-(4-{[1-(5-{2-[(dimethylamino)methyl]phenyl}thiophen-2-yl)ethyl]amino}-2-methylquinazolin-6-yl)methanesulfonamide]	90.2	65.5
COc1ccc(-c2ccc(C(C)Nc3nc(C)nc4cc(OC)c(OC)cc34)s2)c(CN(C)C)c1 (stereo not shown) [Example 439, N-[1-(5-{2-[(dimethylamino)methyl]-4-methoxyphenyl}thiophen-2-yl)ethyl]-6,7-dimethoxy-2-methylquinazolin-4-amine]	277	145
Cc1nc(NC(C)c2ccc(-c3ccccc3CN(C)C)s2)c2cc(NC(=O)N(C)C)ccc2n1 (stereo not shown) [Example 440, 3-(4-{[1-(5-{2-[(dimethylamino)methyl]phenyl}thiophen-2-yl)ethyl]amino}-2-methylquinazolin-6-yl)-1,1-dimethylurea]	706	576
Cc1nc(NC(C)c2ccc(Br)s2)c2cc(N3CCN(Cc4ccccc4)C(=O)C3)ccc2n1 (stereo not shown) [Example 441, 1-benzyl-4-(4-{[1-(5-bromothiophen-2-yl)ethyl]amino}-2-methylquinazolin-6-yl)piperazin-2-one]	16100	3950
COc1cc2nc(C)nc(NC(C)c3ccc(-c4ccc(C)cc4CN(C)C)s3)c2cc1OC (stereo not shown) [Example 442, N-[1-(5-{2-[(dimethylamino)methyl]-4-methylphenyl}thiophen-2-yl)ethyl]-6,7-dimethoxy-2-methylquinazolin-4-amine]	45.3	39.4
COc1cc2nc(C)nc(NC(C)c3ccc(-c4ccc(C5CC5)cc4CN(C)C)s3)c2cc1OC (stereo not shown) [Example 443, N-[1-(5-{4-cyclopropyl-2-[(dimethylamino)methyl]phenyl}thiophen-2-yl)ethyl]-6,7-dimethoxy-2-methylquinazolin-4-amine]	112	60.5
COc1cc2nc(C)nc(NC(C)c3ccc(-c4ccccc4C(C)(C)N)s3)c2cc1OC (stereo not shown) [Example 455, N-[1-{5-[2-(2-aminopropan-2-yl)phenyl]thiophen-2-yl}ethyl]-6,7-dimethoxy-2-methylquinazolin-4-amine]	397	1040
